Data as given in patent US6838436B1, “Inhibitors of proteasomal activity for stimulating bone growth” (Osteoscreen Inc., priority 1998, dated 2005).
Where a SMILES comes first, the peptide text is derived from it. The star is where a group is joined. Cbz = O=C(OCc1ccccc1)*; OtBu = CC(C)(C)O*

Legend:
chymotrypsin = chymotrypsin (Bos taurus, UniProt P00766); conditions: cited from earlier work
calpain = conditions: cited from earlier work
[1] = system: hair follicles of skin explants; assay: Skin explants from mice during telogen (Example 16); type: cell-based; conditions: 72 hours
Source text: In the untreated control explants, the follicles were few and small.

hair follicles [2] = assay: Hair growth without depilation, shaved dorsal trunks (Example 15); type: in vivo, C57 BL/6 mice; conditions: for growth of new hair at the site of drug application: sixteenth day
Protocol: To confirm that the responses described above occurred in the absence of depilation and in other strains of mice, PS1 (0.5%) was applied topically once daily for 5 days to eight week old male C57 BL/6 mice in which the dorsal trunks were shaved but not depilated. For this experiment, the hair of 18 C57 BL/6 mice was carefully clipped the hair from the dorsal trunks. Three groups were tested. One group was treated with PS1 (0.5%) applied topically to the shaved area daily. In the second group, PS1 (1 mg/kg body weight/day) was injected locally into the subcutaneous tissue of the shaved area. These two groups were compared with the third group, which was untreated other than the hair on the dorsal trunk was similarly clipped. Blonde hair dye (extra strength bleach powder and 12% hydrogen peroxide in a 1 to 1 w/v ratio) was applied to the dorsal trunks of all mice on the seventh day in order to make it easier to detect new hair growth represented by appearance in the blonded areas of the natural black hair of the mice associated with induction of melanogenesis.

hair follicles [3] = assay: Topical administration of PSI, hair growth (Examples 13 and 14); type: in vivo, mice
Protocol: PSI was prepared as a topical formulation, where the vehicle was 50% propylene glycol, 30% ethanol, 20% deionized water, at 0.1% concentration of PSI. The solution was applied 3 times a day for 5 days. The mice in a treated group were observed as compared to controls similarly treated with vehicle alone.
When the protocol above was repeated using a 0.5% solution of PSI in groups containing 5 mice each, the number of hairs per 0.8 mm^2 was 60 in the treated mice versus about 10 in the control group. The percentage of follicle area in a region of about 0.8 mm was about 30% as an average in the treated group as compared to 15% as an average in the control group.
In order to determine the minimal effective dosage of PSI, when used topically, a dose response curve for PSI was prepared. All experiments were preformed according to current good laboratory practice regulations (21CFR58). The mice were divided into 7 groups, 10 mice each, wherein one group was control treated only with vehicle and groups 1-6 with a series of increasing concentrations of PSI in a vehicle comprising 50% propylene glycol, 30% ethanol, 20% deionized water. The concentrations were 0.006%, 0.012%, 0.025%, 0.05%, 0.11% and 0.5%.
The mice were anesthetized (50 μl Mouse Cocktail containing 3 ml ketamine, 2 ml small animal rompum, 5 ml NaCl), identified by ear punch code, weighed and the hair on the dorsal side removed by waxing as described in Example 6. After waxing, the animals were photographed. On the following day (day 1), 100 μl of PSI at the above concentrations in vehicle was brushed onto the area of removed hair. A similar application of PSI solution was performed daily for an additional 4 days.
On Day 7 mice were anesthetized and a biopsy of the dorsal treatment area taken using a 6 mm dermal punch; the specimens were fixed in 10% buffered formalin and embedded in paraffin wax. Sections were cut using a standard microtome.
Mice were monitored daily for signs of hair growth, and any hair growth was recorded by photography. On day 21 animals were euthanized (75 mg/kg body weight phenobarbital, IP injection), 2 cm hair samples were taken for optical based fiber analysis, and the remaining dorsal treatment area was fixed in 10% buffered formalin for further histological analysis. Analysis included quantification of hair thickness and quantification of mature hair follicles. Results were expressed as the mean=+/−the standard error of the mean. Data were analyzed by repeated measures of analysis of variance followed by the Tukey-Kramer post test P values of <0.05 were considered significant.

hair follicles [4] = assay: Effects on subcutaneous tissue of the scalp (Example 10); type: in vivo, ICR mice; conditions: 1 mg/kg body weight/day injected daily for 5 days; examined 16 days later
Protocol: Effects of PS1 on subcutaneous tissue of the scalp of 6-weeks old ICR mice from longitudinal and transverse sections were determined. PS1 dissolved in 50% propylene glycol, 10% DMSO, and 40% distilled water was injected daily for 5 days (1 mg/kg body weight/day) into the subcutaneous tissue, and the tissue examined histologically 16 days later.

calvaria of normal mice = assay: In vivo assay of effects on murine calvarial bone growth; parameters: species or system ICR Swiss white mice; conditions: for % Increase in Bone Area Compared with Control: p < 0.05; for % Increase in New Bone Width: p < 0.001
Protocol: Male ICR Swiss white mice, aged 4-6 weeks and weighing 13-26 gm, are employed, using 4-5 mice per group. The calvarial bone growth assay is performed as described in PCT application WO95/24211, incorporated by reference. Briefly, the test compound or appropriate control vehicle is injected into the subcutaneous tissue over the right calvaria of normal mice. Typically, the control vehicle is the vehicle in which the compound was solubilized, and is PBS containing 5% DMSO or is PBS containing Tween (2 μl/10 ml). The animals are sacrificed on day 14 and bone growth measured by histomorphometry. Bone samples for quantitation are cleaned from adjacent tissues and fixed in 10% buffered formalin for 24-48 hours, decalcified in 14% EDTA for 1-3 weeks, processed through graded alcohols; and embedded in paraffin wax. Three to five μm sections of the calvaria are prepared, and representative sections are selected for histomorphometric assessment of the effects on bone formation and bone resorption. Sections are measured by using a camera lucida attachment to trace directly the microscopic image onto a digitizing plate. Bone changes are measured on sections cut 200 μm apart, over 4 adjacent 1×1 mm fields on both the injected and noninjected sides of the calvaria. New bone is identified by its characteristic woven structure, and osteoclasts and osteoblasts are identified by their distinctive morphology. Histomorphometry software (OsteoMeasure, Osteometrix, Inc., Atlanta) is used to process digitizer input to determine cell counts and measure areas or perimeters.
Typical treatment regimens for testing utilize application of the compound to be tested over several days of repeated administration.
PSI and MG-132 were assayed in vivo according to the procedure described previously (see “In vivo Assay of Effects of Compounds on Murine Calvarial Bone Growth”, supra). As a control, simvastatin provided a 1.5 fold increase in the number of osteoblasts.
In one experiment, vehicle control, bFGF and varying doses of PSI were tested in the in vivo calvarial bone growth assay. The results are reported as a measurement of total bone area, % increase in area over vehicle control, and % increase in new bone width as shown below.

proteasomal activity = conditions: cited from earlier work

CC[C@H](C)[C@H](NC(=O)[C@H]([C@@H](C)CC)N(C)C(C)=O)C(=O)N[C@H](C(=O)N[C@@H](CC(C)C)C(=O)[C@@]1(C)CO1)[C@@H](C)O [Epoxomicin]
concentration up to which no inhibition appears (chymotrypsin): > 50 µM | concentration up to which no inhibition appears (calpain): > 50 µM | hair follicle diameter and follicle elongation ([1]; 25 nM): obvious increase in hair follicle diameter, and follicle elongation

CC[C@H](C)[C@H](NC(=O)OCc1ccccc1)C(=O)N[C@@H](CCC(=O)OC(C)(C)C)C(=O)N[C@@H](C)C(=O)N[C@H](C=O)CC(C)C [PSI, N-carbobenzoyl-Ile-Glu-(OtBu)-Ala-Leu-CHO] (Cbz-IE(OtBu)AL-aldehyde)
growth of new hair at the site of drug application (hair follicles [2]; 1 mg/kg body weight/day injected locally into the subcutaneous tissue): more rapid growth of new hair | growth of new hair at the site of drug application (hair follicles [2]; 0.5% applied topically once daily for 5 days): more rapid growth of new hair | diameter of the hair and of the inner and outer root sheath (hair follicles [2]; transverse sections of skin, only in the applied areas): increased both the diameter of the hair and the diameter of the inner and outer root sheath | effectiveness on hair growth (hair follicles [3]; 0.1% of PSI applied topically 3 times a day for 5 days (additional experiments)): effective | thickness of hair and hair shaft (hair follicles [3]; topical): thicken both the hair and the hair shaft | percentage of follicle area in a region of about 0.8 mm (hair follicles [3]; topical 0.5% solution of PSI, average, control 15%): about 30% | number of hairs per 0.8 mm^2 (hair follicles [3]; topical 0.5% solution of PSI, control about 10): 60 | hair growth relative to controls (hair follicles [3]; topical, 0.1% PSI, 3 times a day for 5 days, day 16): stimulation of hair growth relative to the controls | minimal effective dose (hair follicles [3]; topical, applied 1 time a day for 4 days): 0.5% | numbers of hair follicles (hair follicles [4]): numbers of hair follicles increased | size of the follicle diameter and the root sheath diameter (hair follicles [4]): obvious increase in size of the follicle diameter and the root sheath diameter | hair follicle diameter and follicle elongation ([1]; 50 nM): obvious increase in hair follicle diameter, and follicle elongation | histological examination of bone growth (calvaria of normal mice; 5 mg/kg/day and 1 mg/kg/day of PSI): confirmation of bone growth | Total Bone Area (calvaria of normal mice; PSI 0.1 mg/kg/day): 0.74 ± 0.02 mm² | % Increase in Bone Area Compared with Control (calvaria of normal mice; PSI 0.1 mg/kg/day): 21.7 ± 3.5% | Total Bone Area (calvaria of normal mice; PSI 1 mg/kg/day): 0.83 ± 0.02 mm² | % Increase in New Bone Width (calvaria of normal mice; PSI 1 mg/kg/day): 19.9 ± 2.0% | % Increase in Bone Area Compared with Control (calvaria of normal mice; PSI 1 mg/kg/day): 35.4 ± 3.4% | Total Bone Area (calvaria of normal mice; PSI 5 mg/kg/day): 0.79 ± 0.03 mm² | % Increase in New Bone Width (calvaria of normal mice; PSI 5 mg/kg/day): 19.9 ± 4.4% | % Increase in Bone Area Compared with Control (calvaria of normal mice; PSI 5 mg/kg/day): 32.1 ± 5.6%

simvastatin
effects on proteasomal activity (proteasomal activity): no effects on proteasomal activity | increase in the number of osteoblasts (calvaria of normal mice; mouse, in vivo): 1.5 fold
